Assays:
Type in all cases: biochemical, Trichoderma atroviride
FgenL mRNA construct = experiment: Size Exclusion Base Hydrolysis Degradation Assay, FgenL; details: 25 mM amino acid
Outline: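 mRNA (diluted to 1.0 mg/mL) preincubated 1 h with amino acid, then brought to pH 11 with CAPS and NaOH at room temperature. Intact mRNA quantified by size-exclusion UPLC, peak area at 250 nm in the T=0 elution window, expressed as percentage of T=0 at 2, 10 and 24 hrs.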

FgenL model RNA [1] = details: percent protection, pH 11.0, 44° C., 16 hours, n = 2
Chi18 model RNA [2] = experiment: TapeStation Assay, Chi18 model RNA
Outline: (§1)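 Chi18 or FgenL model RNA at 50 ng/μL in 50 mM CAPS pH 11 was mixed with amino acids (stocks in CAPS, readjusted to >pH 11) and heated at 50° C for 0 or 15 minutes; time-0 samples stayed on ice. Intact RNA was measured by capillary electrophoresis with optical detection and compared with a no-degradation baseline.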

FgenL model RNA [3] = experiment: TapeStation Assay, FgenL model RNA
Outline: as §1

Chi18 model RNA [4] = experiment: Droplet Digital Polymerase Chain Reaction (ddPCR) Assay, Chi18; details: percent protection, pH 11.0, 30° C., 16 hours, n = 2
Outline: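 Chi18 (25 fg/μL) or FgenL (10 fg/μL) RNA at pH 11.0 incubated 16 h with amino acids (10-point half-log series, ~300 mM top stock in CAPS), at 30° C or 44° C respectively. Intact RNA reverse-transcribed, ddPCR 5′-positive droplet fraction taken as protection; EC50 from four-parameter logistic fit.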

[5] = Chi18 RNA, 20 mM amino acids, 50 mM CAPS pH 11, 50° C. 15 min, vs Time 0
[6] = FgenL RNA, 20 mM amino acids, 50 mM CAPS pH 11, 50° C. 15 min, vs Time 0

For `O=C(O)[C@@H]1CCCN1` [Proline], the “T0 R1 peak area at 250 nm” value (FgenL mRNA construct; FgenL 0.1 mg/mL, 50 mM CAPS, T=0, replicate 1) was 17907, the “T2 Avg, peak area as percentage of T=0” value (FgenL mRNA construct; FgenL, 50 mM CAPS pH 11, room temperature, 2 hrs) was 16.6% and the “T2 R1 peak area at 250 nm” value (FgenL mRNA construct; FgenL, 50 mM CAPS pH 11, room temperature, 2 hrs, replicate 1) was 3380. The “T10 Avg, peak area as percentage of T=0” value (FgenL mRNA construct; FgenL, 50 mM CAPS pH 11, room temperature, 10 hrs) was 0.0%, the “T10 R1 peak area at 250 nm” value (FgenL mRNA construct; FgenL, 50 mM CAPS pH 11, room temperature, 10 hrs, replicate 1) was 0 and the “T24 Avg, peak area as percentage of T=0” value (FgenL mRNA construct; FgenL, 50 mM CAPS pH 11, room temperature, 24 hrs) was 0.0%. The “T24 R1 peak area at 250 nm” value (FgenL mRNA construct; FgenL, 50 mM CAPS pH 11, room temperature, 24 hrs, replicate 1) was 0, the “T0 Avg, peak area as percentage of T=0” value (FgenL mRNA construct; FgenL, T=0 (reference)) was 100.0% and the EC50 (FgenL model RNA [1]) was > 30 mM. The “% Control N = 1” value (Chi18 model RNA [2]; [5]) was 37.0%, the “% Control N = 2” value (Chi18 model RNA [2]; [5]) was 34.6% and the “% Control Avg.” value (Chi18 model RNA [2]; Chi18 RNA, 20 mM amino acids, 50 mM CAPS pH 11, 50° C. 15 min, vs Time 0, Avg N=2) was 35.8%. The “Conc. chi18#1” value (Chi18 model RNA [2]; intact Chi18 RNA after 15 min at 50° C., 20 mM amino acids in 50 mM CAPS pH 11, run #1) was 19.7, the “Conc. chi18#2” value (Chi18 model RNA [2]; intact Chi18 RNA after 15 min at 50° C., 20 mM amino acids in 50 mM CAPS pH 11, run #2) was 18.3 and the “% Control N = 1” value (FgenL model RNA [3]; [6]) was 21.8%. For the same molecule, the “% Control N = 2” value (FgenL model RNA [3]; [6]) was 20.3%, the “% Control Average” value (FgenL model RNA [3]; FgenL RNA, 20 mM amino acids, 50 mM CAPS pH 11, 50° C. 15 min, vs Time 0, Avg N=2) was 21.0% and the “Conc. FgenL#1” value (FgenL model RNA [3]; intact FgenL RNA after 15 min at 50° C., 20 mM amino acids in 50 mM CAPS pH 11, run #1) was 7.52. The “Conc. FgenL#2” value (FgenL model RNA [3]; intact FgenL RNA after 15 min at 50° C., 20 mM amino acids in 50 mM CAPS pH 11, run #2) was 7.03 and the EC50 (Chi18 model RNA [4]) was > 30 mM.

Reference: patent publication US20240122865A1, “Methods of Protecting RNA” (Pfizer Inc., priority 2021, published 2024)
